From paper PMC6214812, “The mycosporine-like amino acids porphyra-334 and shinorine are antioxidants and direct antagonists of Keap1-Nrf2 binding” (Biochimie, 2018)
Like-named read-outs stand apart in the source and are kept apart here.

Assays:
[1] = molecular target: T1, Kelch-like ECH-associated protein 1 (Keap1) (Homo sapiens, UniProt Q14145); test: FP competition with FITC-(βAla)-DEETGEF-OH; thermal shift (ΔTm […] °C at […]); assay type: binding
T1 construct: Kelch-repeat domain

[2] = molecular target: T1, Kelch-like ECH-associated protein 1 (Keap1); test: as above; assay type: binding; remark: listed apart in the source

T1 sequence (Q14145 321-609 limits assumed): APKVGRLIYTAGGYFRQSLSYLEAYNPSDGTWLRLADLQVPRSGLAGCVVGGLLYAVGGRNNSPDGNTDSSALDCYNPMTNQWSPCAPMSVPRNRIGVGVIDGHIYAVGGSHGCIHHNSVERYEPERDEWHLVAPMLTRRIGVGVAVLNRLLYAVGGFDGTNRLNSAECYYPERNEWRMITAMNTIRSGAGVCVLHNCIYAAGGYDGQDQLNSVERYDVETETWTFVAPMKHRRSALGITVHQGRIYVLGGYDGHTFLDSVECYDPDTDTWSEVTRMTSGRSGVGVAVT

Row | SMILES | IC50 [1] [µM] | IC50 [2] [µM]
1 | COC1=C(NCC(=O)O)CC(O)(CO)CC1=NC(C(=O)O)C(C)O (centres unmarked) [porphyra-334] | ~100 | 
2 | COC1=C(NCC(=O)O)C[C@@](O)(CO)C/C1=N\[C@@H](CO)C(=O)O [shinorine] |  | ~100
